Read-outs that look alike come from different tables or passages of the source.
What was measured:
[1] = reversed-phase HPLC; cited from earlier work
[2] = tested on: KB tumor-bearing mice; conditions: 45 min p.i., n = 4, cited from earlier work
[3] = Relative lipophilicity (capacity factor k’) by reversed-phase HPLC; type: physicochemical; conditions: methanol-phosphoric acid buffer eluent, pH 2
Experimental: The relative lipophilicity of 6 was determined as capacity factor k’ (k’ = (tretention - tsolvent) / tsolvent) by reversed-phase HPLC using a methanol-phosphoric acid buffer eluent system at pH 2. […] This method has already been described elsewhere. The capacity factor k’ (k’ = (tretention - tsolvent) / tsolvent) was determined using reversed-phase HPLC and enables different (radio)folates to be compared based on their polarity. The values determined can be used to give hint to the in vivo behavior in terms of the degree of hepatobiliary excretion by comparison with literature examples.

[4] = target: T1, folate receptor (Homo sapiens, UniProt P15328); assay: Displacement assay with [^3H]folic acid on FR-positive human KB cells; type: binding
T1 construct: using [^3H]folic acid and human KB cells in cell suspension; endogenous in cells; host or cells: human KB cells
Experimental: FR-positive human KB cells were kept under folate-deficient conditions to adjust the folate concentration levels to that of the human serum.
Figure 1 Displacement assay. […] Experiments were conducted in triplicate (n = 3).

T1 sequence (P15328 25-257): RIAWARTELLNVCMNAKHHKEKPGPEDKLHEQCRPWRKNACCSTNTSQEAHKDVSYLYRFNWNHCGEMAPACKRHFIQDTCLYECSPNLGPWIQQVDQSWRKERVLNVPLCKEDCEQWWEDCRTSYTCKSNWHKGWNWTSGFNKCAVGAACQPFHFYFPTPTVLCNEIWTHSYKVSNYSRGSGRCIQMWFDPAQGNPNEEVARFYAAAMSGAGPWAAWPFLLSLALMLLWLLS

capacity factor k’ [3]	IC50 [4]	Ki [4]	Structure (SMILES)	capacity factor k’ [1]	Ratio of tumor to Kidney [2]	Ratio of tumor to Liver [2]	%ID/g Blood ([2]; Blood)	%ID/g Bone ([2]; Bone)	%ID/g Feces ([2]; Feces)	%ID/g Gall bladder ([2]; Gall bladder)	%ID/g Heart ([2]; Heart)	%ID/g Intestines (empty) ([2]; Intestines (empty))	%ID/g Tumor ([2]; KB tumor)	%ID/g Kidneys ([2]; Kidneys)	%ID/g Liver ([2]; Liver)	%ID/g Lung ([2]; Lung)	%ID/g Spleen ([2]; Spleen)	%ID/g Stomach (empty) ([2]; Stomach (empty))
			Nc1nc2ncc(CNc3ccc(C(=O)NC(CCC(=O)NCCCCn4cc(CCCC[18F])nn4)C(=O)O)cc3)nc2c(=O)[nH]1 (stereo not drawn) [^18 F-click folate]	2.28	0.19 ± 1.38	1.18 ± 0.69	0.13 ± 0.01 %ID/g	0.13 ± 0.01 %ID/g	56.00 ± 27.64 %ID/g	667.4 ± 530.1 %ID/g	0.90 ± 0.22 %ID/g	19.59 ± 5.26 %ID/g	3.13 ± 0.83 %ID/g	16.53 ± 2.22 %ID/g	1.71 ± 0.14 %ID/g	0.85 ± 0.04 %ID/g	0.33 ± 0.12 %ID/g	2.50 ± 0.6 %ID/g
1.12	3.1 nM	1.6 nM	Nc1nc2ncc(CNc3ccc(C(=O)N[C@@H](CCC(=O)NCCOCCOCCOCCn4cc(COCCOCCOCCF)nn4)C(=O)O)cc3)nc2c(=O)[nH]1 [Compound 6]															
